Source: ChEMBL document CHEMBL4184114, “Discovery of selective, orally bioavailable inhibitor of mouse chitotriosidase” (Bioorg Med Chem Lett, 2018)

What was measured:
Chitotriosidase-1 = Chitotriosidase-1 (Mus musculus, UniProt Q9D7Q1); test: Inhibition of mouse CHIT1 using 4-methylumbelliferyl beta-D-N,N',N'' triacetylchitotrioside as substrate measured after 60 mins by fluorometric method
[1] = molecular target: Acidic mammalian chitinase (Mus musculus, UniProt Q91XA9); test: Inhibition of mouse AMCase using 4-methylumbelliferyl beta-D-N,N' diacetylchitobioside hydrate as substrate measured after 60 mins by fluorometric method
[2] = AUC (0 to infinity) in BALB/c mouse at 3 mg/kg, iv administered as bolus dose by LC-MS/MS analysis; format: ADME, organism-based; set-up: dose 3 mg/kg, route intravenous, time infinity; conditions: in vivo
[3] = Half-life in BALB/c mouse at 10 mg/kg, po by LC-MS/MS analysis; format: ADME, organism-based; conditions: in vivo
[4] = Volume of distribution at steady state in BALB/c mouse at 3 mg/kg, iv administered as bolus dose by LC-MS/MS analysis; format: ADME, organism-based; conditions: in vivo, read-out: Vdss
[5] = Clearance in BALB/c mouse at 3 mg/kg, iv administered as bolus dose by LC-MS/MS analysis; format: ADME, organism-based; conditions: in vivo
[6] = Tmax in BALB/c mouse at 10 mg/kg, po by LC-MS/MS analysis; format: ADME, organism-based; conditions: in vivo
[7] = Oral bioavailability in BALB/c mouse at 10 mg/kg by LC-MS/MS analysis; format: ADME, organism-based; conditions: in vivo
[8] = AUC (0 to infinity) in BALB/c mouse at 10 mg/kg, po by LC-MS/MS analysis; format: ADME, organism-based; set-up: dose 10 mg/kg, time infinity, route oral; conditions: in vivo
[9] = Cmax in BALB/c mouse at 10 mg/kg, po by LC-MS/MS analysis; format: ADME, organism-based; set-up: dose 10 mg/kg, route oral; conditions: in vivo
[10] = Cmax in BALB/c mouse at 3 mg/kg, iv administered as bolus dose by LC-MS/MS analysis; format: ADME, organism-based; set-up: dose 3 mg/kg, route intravenous; conditions: in vivo
[11] = Half-life in BALB/c mouse at 3 mg/kg, iv administered as bolus dose by LC-MS/MS analysis; format: ADME, organism-based; conditions: in vivo

Chain of Chitotriosidase-1 (Q9D7Q1 whole entry): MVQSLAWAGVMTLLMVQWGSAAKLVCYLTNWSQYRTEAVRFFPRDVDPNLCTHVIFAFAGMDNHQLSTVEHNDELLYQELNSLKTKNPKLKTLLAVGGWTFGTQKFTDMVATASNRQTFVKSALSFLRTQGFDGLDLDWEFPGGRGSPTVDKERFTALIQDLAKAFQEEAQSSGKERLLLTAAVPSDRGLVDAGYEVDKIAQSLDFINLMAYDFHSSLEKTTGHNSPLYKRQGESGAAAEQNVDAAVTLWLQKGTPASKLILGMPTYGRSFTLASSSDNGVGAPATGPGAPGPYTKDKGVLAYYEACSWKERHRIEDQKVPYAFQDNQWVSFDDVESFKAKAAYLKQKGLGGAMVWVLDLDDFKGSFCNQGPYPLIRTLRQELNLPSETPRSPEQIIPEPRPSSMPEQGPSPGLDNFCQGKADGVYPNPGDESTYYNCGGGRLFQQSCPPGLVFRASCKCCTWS
Chain of Acidic mammalian chitinase (Q91XA9 whole entry): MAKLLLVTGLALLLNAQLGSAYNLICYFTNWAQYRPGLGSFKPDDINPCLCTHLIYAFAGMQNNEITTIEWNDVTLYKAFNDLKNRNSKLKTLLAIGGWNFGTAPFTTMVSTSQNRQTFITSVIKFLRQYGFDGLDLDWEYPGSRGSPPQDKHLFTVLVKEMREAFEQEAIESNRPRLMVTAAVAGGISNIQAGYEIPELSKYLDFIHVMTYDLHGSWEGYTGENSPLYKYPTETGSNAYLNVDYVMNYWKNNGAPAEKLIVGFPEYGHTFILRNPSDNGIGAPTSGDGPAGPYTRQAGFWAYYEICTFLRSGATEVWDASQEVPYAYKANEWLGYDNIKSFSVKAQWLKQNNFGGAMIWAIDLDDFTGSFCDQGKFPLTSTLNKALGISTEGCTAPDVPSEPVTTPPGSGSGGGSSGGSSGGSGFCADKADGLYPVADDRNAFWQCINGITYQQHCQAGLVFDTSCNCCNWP

| SMILES | IC50 (Chitotriosidase-1) [nM] | IC50 [1] [nM] | also measured |
| --- | --- | --- | --- |
| COC(=O)CN1C[C@H](Cc2ccc(Cl)cc2)N(C2CCN(c3n[nH]c(N)n3)CC2)C[C@@H]1C | 29 | 231 | – |
| C[C@H]1CN(C2CCN(c3n[nH]c(N)n3)CC2)[C@@H](Cc2ccc(Cl)cc2)CN1CC(=O)N(C)C | 24 | 751 | – |
| CC(=O)N1C[C@H](Cc2ccc(Cl)cc2)N(C2CCN(c3nnc(N)[nH]3)CC2)C[C@@H]1C | 4380 | 6020 | – |
| CC(C)C[C@H]1CN(C2CCN(c3nnc(N)[nH]3)CC2)[C@@H](Cc2ccc(Cl)cc2)CN1C | 95 | 936 | – |
| CC(C)C[C@H]1CN(C2CCN(c3n[nH]c(N)n3)CC2)[C@@H](Cc2ccc(Cl)cc2)CN1 | 135 | 2910 | – |
| C[C@H]1CN(C2CCN(c3nnc(N)[nH]3)CC2)[C@@H](Cc2ccc(Cl)cc2)CN1S(C)(=O)=O | 1010 | 3720 | – |
| CN1C[C@H](Cc2ccc(Cl)cc2)N(C2CCN(c3nnc(N)[nH]3)CC2)C[C@@H]1CC1CCCCC1 | 128 | 640 | – |
| Nc1nc(N2CCC(N3C[C@@H]4C[C@@H](O)CN4C[C@@H]3Cc3ccc(Cl)cc3)CC2)n[nH]1 | 48 | 136 | – |
| CN1C[C@H](Cc2ccc(Cl)cc2)N(C2CCN(c3nnc(N)[nH]3)CC2)C[C@@H]1Cc1ccc(Cl)cc1 | 103 | 518 | – |
| CC(C)C[C@H]1CN(C2CCN(c3n[nH]c(N)n3)CC2)[C@@H](Cc2ccc(Cl)cc2)CN1CC(C)C | 41 | 5700 | – |
| C[C@H]1CN(C2CCN(c3nnc(N)[nH]3)CC2)[C@@H](Cc2ccc(Cl)cc2)CN1C | 186 | 1220 | – |
| COC(=O)N1C[C@H](Cc2ccc(Cl)cc2)N(C2CCN(c3nnc(N)[nH]3)CC2)C[C@@H]1C | 461 | 3750 | – |
| Nc1nc(N2CCC(N3C[C@@H]4CCCCN4C[C@@H]3Cc3ccc(Cl)cc3)CC2)n[nH]1 | 175 | 525 | – |
| Nc1nnc(N2CCC(N3C[C@@H]4CCCN4C[C@@H]3Cc3ccc(Cl)cc3)CC2)[nH]1 | 161 | 697 | – |
| CN1C[C@H](Cc2ccc(Cl)cc2)N(C2CCN(c3nnc(N)[nH]3)CC2)C[C@@H]1CO | 175 | 1250 | – |
| CC(C)CN1C[C@H](Cc2ccc(Cl)cc2)N(C2CCN(c3n[nH]c(N)n3)CC2)C[C@@H]1C | 29 | 4170 | AUC(0-inf) [2]: 1750 ng·h/mL; half-life [3]: 2.83 h; Vd [4]: 4.6 L/kg; clearance [5]: 28.5 mL/min/kg; Tmax [6]: 0.5 h; bioavailability [7]: 61.2%; AUC(0-inf) [8]: 3570 ng·h/mL; Cmax [9]: 840 ng/mL; Cmax [10]: 1480 ng/mL; half-life [11]: 2.87 h |
| CN1CCN(C2CCN(c3nnc(N)[nH]3)CC2)[C@@H](Cc2ccc(Cl)cc2)C1 | 1590 | 7600 | – |
| C[C@H]1CN(C2CCN(c3nnc(N)[nH]3)CC2)[C@@H](Cc2ccc(Cl)cc2)CN1CC(=O)O | 53 | 527 | – |
| Nc1nc(N2CCC(N3C[C@@H]4C[C@H](O)CN4C[C@@H]3Cc3ccc(Cl)cc3)CC2)n[nH]1 | 29 | 130 | – |
| C[C@H]1CN(C2CCN(c3n[nH]c(N)n3)CC2)[C@@H](Cc2ccc(Cl)cc2)CN1Cc1ccc(Cl)cc1 | 495 | 1400 | – |
